Assay results reported in patent US8431596B2 (Cancer Research Technology Limited, priority 2007, dated 2013).

Biological target: T1, AXL (human catalytic domain) (Homo sapiens, UniProt P30530)
T1 construct: purchased Upstate Ltd. 14-512
T1 sequence (P30530 473-894): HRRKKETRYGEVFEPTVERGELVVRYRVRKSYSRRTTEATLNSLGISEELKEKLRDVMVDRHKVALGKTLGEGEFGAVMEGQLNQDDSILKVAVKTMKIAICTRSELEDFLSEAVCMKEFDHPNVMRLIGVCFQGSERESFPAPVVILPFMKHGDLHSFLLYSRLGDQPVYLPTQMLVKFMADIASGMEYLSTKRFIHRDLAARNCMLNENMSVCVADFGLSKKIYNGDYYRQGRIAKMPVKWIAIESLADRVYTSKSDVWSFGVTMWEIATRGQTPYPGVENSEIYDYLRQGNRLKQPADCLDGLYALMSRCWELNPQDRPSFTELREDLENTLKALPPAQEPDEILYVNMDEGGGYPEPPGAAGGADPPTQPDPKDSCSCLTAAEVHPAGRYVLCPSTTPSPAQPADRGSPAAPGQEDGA
Assay: AXL (human catalytic domain) Enzyme Activity Assay (IMAP fluorescence polarisation)
Assay type: biochemical
Conditions: further data set (WW-001 through WW-169, XX-001 through XX-469, YY-001 through YY-016, ZZ-001 through ZZ-003); 150 μM ATP
How it was run: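 IMAP FP readout (Ex485/Em535, after overnight binding) measured inhibition of the human AXL catalytic domain (aa473-894, 15 nM final) acting on 100 nM 5FAM-CSK-tide at 150 μM ATP, equal to KM. Reactions ran 60 min at room temperature in pH 7.0 HEPES buffer; IC50 from 10-point curves.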

Row | SMILES | IC50 [nM]
1 | COc1cccc(COc2cccc(-c3cccc4nc(Nc5ccc(OCCN6CCCC6)cc5)nn34)c2)c1 [XX-335] | 100 to 1000
2 | Clc1ccc(COc2cccc(-c3cccc4nc(Nc5ccc(OCCN6CCCC6)cc5)nn34)c2)cc1 [XX-336] | 1000 to 10000
3 | CCOc1cccc(-c2cccc3nc(Nc4ccc(OCCN5CCCC5)cc4)nn23)c1 [XX-337] | 100 to 1000
4 | COc1ccccc1COc1cccc(-c2cccc3nc(Nc4ccc(OCCN5CCCC5)cc4)nn23)c1 [XX-338] | 1000 to 10000
5 | Clc1ccccc1COc1cccc(-c2cccc3nc(Nc4ccc(OCCN5CCCC5)cc4)nn23)c1 [XX-339] | 1000 to 10000
6 | COc1ccc(COc2cccc(-c3cccc4nc(Nc5ccc(OCCN6CCCC6)cc5)nn34)c2)cc1 [XX-340] | 100 to 1000
7 | ClCc1cccc(-c2cccc3nc(Nc4ccc(OCCN5CCCC5)cc4)nn23)c1 [XX-341, [5-(3-Chloromethyl-phenyl)-[1,2,4]triazolo[1,5-a]pyridin-2-yl]-[4-(2-pyrrolidin-1-yl-ethoxy)-phenyl]-amine] | 100 to 1000
8 | NC(=O)Cn1cc(-c2cccc3nc(Nc4ccc(OCCN5CCCC5)cc4)nn23)cn1 [XX-342] | 1000 to 10000
9 | CCCCCn1cc(-c2cccc3nc(Nc4ccc(OCCN5CCCC5)cc4)nn23)cn1 [XX-343] | 100 to 1000
10 | c1cc(-c2cnn(CC3CCCO3)c2)n2nc(Nc3ccc(OCCN4CCCC4)cc3)nc2c1 (centres unmarked) [XX-344] | 100 to 1000
11 | CC(C)CCCn1cc(-c2cccc3nc(Nc4ccc(OCCN5CCCC5)cc4)nn23)cn1 [XX-345] | 100 to 1000
12 | O=C(Cn1cc(-c2cccc3nc(Nc4ccc(OCCN5CCCC5)cc4)nn23)cn1)c1ccccc1 [XX-346] | 100 to 1000
13 | c1cc(-c2ccc3cc[nH]c3c2)n2nc(Nc3ccc(OCCCN4CCCCC4)cc3)nc2c1 [XX-347] | 100 to 1000
14 | O=C(NCc1cccc(-c2cccc3nc(Nc4ccc(OCCN5CCCC5)cc4)nn23)c1)Nc1cccc(Cl)c1 [XX-348, 1-(3-Chloro-phenyl)-3-(3-{2-[4-(2-pyrrolidin-1-yl-ethoxy)-phenylamino]-[1,2,4]triazolo[1,5-a]pyridin-5-yl}-benzyl)-urea] | 1000 to 10000
15 | COCCn1cc(-c2cccc3nc(Nc4ccc(OCCN5CCCC5)cc4)nn23)cn1 [XX-349] | 100 to 1000
16 | Cc1ccc(CCn2cc(-c3cccc4nc(Nc5ccc(OCCN6CCCC6)cc5)nn34)cn2)cc1 [XX-350] | 100 to 1000
17 | N#CCCn1cc(-c2cccc3nc(Nc4ccc(OCCN5CCCC5)cc4)nn23)cn1 [XX-351] | 100 to 1000
18 | Clc1cccc(Cn2cc(-c3cccc4nc(Nc5ccc(OCCN6CCCC6)cc5)nn34)cn2)c1 [XX-352] | 100 to 1000
19 | CC(C)CCn1cc(-c2cccc3nc(Nc4ccc(OCCN5CCCC5)cc4)nn23)cn1 [XX-353] | ≤ 100
20 | Clc1ccccc1Cn1cc(-c2cccc3nc(Nc4ccc(OCCN5CCCC5)cc4)nn23)cn1 [XX-354] | 100 to 1000
21 | COc1ccc(-c2cccc3nc(Nc4ccc(N(C)C(=O)C(C)N5CCCC5)cc4)nn23)cc1 (centres unmarked) [XX-355] | 100 to 1000
22 | c1cc(-c2cnn(CC3CCCCC3)c2)n2nc(Nc3ccc(OCCN4CCCC4)cc3)nc2c1 [XX-356] | 100 to 1000
23 | CCN(CC)CCOc1cc(Nc2nc3cccc(-c4cccc(CO)c4)n3n2)ccn1 [XX-357] | 100 to 1000
24 | CCN(CC)CCOc1cc(Nc2nc3cccc(-c4ccc5c(c4)OCO5)n3n2)ccn1 [XX-358] | 100 to 1000

Row | SMILES | IC50 [nM]
25 | CCN(CC)CCOc1cc(Nc2nc3cccc(-c4ccc(OC)c(F)c4)n3n2)ccn1 [XX-359] | ≤ 100
26 | CCN(CC)CCOc1cc(Nc2nc3cccc(-c4ccc(OC(C)C)cc4)n3n2)ccn1 [XX-360] | ≤ 100
27 | CCN(CC)CCOc1cc(Nc2nc3cccc(-c4ccc(OC)cc4)n3n2)ccn1 [XX-361] | ≤ 100
28 | CCN(CC)CCOc1cc(Nc2nc3cccc(-c4ccc5[nH]ccc5c4)n3n2)ccn1 [XX-363] | ≤ 100
29 | CCN(CC)CCOc1cc(Nc2nc3cccc(-c4cc5ccccc5o4)n3n2)ccn1 [XX-364] | 100 to 1000
30 | Cc1ccc(-c2cccc3nc(Nc4cccc(C(=O)NCCN5CCCC5)c4)nn23)cc1F [XX-365] | 100 to 1000
31 | FC(F)(F)Oc1cccc(Cn2cc(-c3cccc4nc(Nc5ccc(OCCN6CCCC6)cc5)nn34)cn2)c1 [XX-366] | 100 to 1000
32 | Fc1cccc(Cn2cc(-c3cccc4nc(Nc5ccc(OCCN6CCCC6)cc5)nn34)cn2)c1 [XX-367] | 100 to 1000
33 | COc1ccc(-c2cccc3nc(Nc4ccc(N(C)C(=O)C(C)N5CCOCC5)cc4)nn23)cc1 (centres unmarked) [XX-368] | 100 to 1000
34 | COc1cccc(Cn2cc(-c3cccc4nc(Nc5ccc(OCCN6CCCC6)cc5)nn34)cn2)c1 [XX-369] | 100 to 1000
35 | Cc1cccc(S(=O)(=O)NCc2cccc(-c3cccc4nc(Nc5ccc(OCCN6CCCC6)cc5)nn34)c2)c1 [XX-370] | 100 to 1000
36 | O=C(NCc1cccc(-c2cccc3nc(Nc4ccc(OCCN5CCCC5)cc4)nn23)c1)Nc1ccccc1 [XX-371] | 100 to 1000
37 | CC(C)(C)NC(=O)NCc1cccc(-c2cccc3nc(Nc4ccc(OCCN5CCCC5)cc4)nn23)c1 [XX-372] | 100 to 1000
38 | CC(C)NC(=O)NCc1cccc(-c2cccc3nc(Nc4ccc(OCCN5CCCC5)cc4)nn23)c1 [XX-373] | 100 to 1000
39 | CCS(=O)(=O)n1cc(-c2cccc3nc(Nc4ccc(OCCN5CCCC5)cc4)nn23)cn1 [XX-374] | ≤ 100
40 | O=S(=O)(C1CC1)n1cc(-c2cccc3nc(Nc4ccc(OCCN5CCCC5)cc4)nn23)cn1 [XX-375] | ≤ 100
41 | CC(=O)Nc1ccc(S(=O)(=O)n2cc(-c3cccc4nc(Nc5ccc(OCCN6CCCC6)cc5)nn34)cn2)cc1 [XX-376] | 100 to 1000
42 | Cc1cccc(S(=O)(=O)n2cc(-c3cccc4nc(Nc5ccc(OCCN6CCCC6)cc5)nn34)cn2)c1 [XX-377] | 100 to 1000
43 | O=S(=O)(c1ccccc1Cl)n1cc(-c2cccc3nc(Nc4ccc(OCCN5CCCC5)cc4)nn23)cn1 [XX-378] | ≤ 100
44 | CCCCCCS(=O)(=O)n1cc(-c2cccc3nc(Nc4ccc(OCCN5CCCC5)cc4)nn23)cn1 [XX-379] | 100 to 1000
45 | CCCS(=O)(=O)n1cc(-c2cccc3nc(Nc4ccc(OCCN5CCCC5)cc4)nn23)cn1 [XX-380] | ≤ 100
46 | O=S(=O)(C1CCCCC1)n1cc(-c2cccc3nc(Nc4ccc(OCCN5CCCC5)cc4)nn23)cn1 [XX-381] | ≤ 100
47 | O=S(=O)(CCC(F)(F)F)n1cc(-c2cccc3nc(Nc4ccc(OCCN5CCCC5)cc4)nn23)cn1 [XX-382] | ≤ 100
48 | CCC(C)S(=O)(=O)n1cc(-c2cccc3nc(Nc4ccc(OCCN5CCCC5)cc4)nn23)cn1 (centres unmarked) [XX-383] | ≤ 100

Row | SMILES | IC50 [nM]
49 | CCCCCS(=O)(=O)n1cc(-c2cccc3nc(Nc4ccc(OCCN5CCCC5)cc4)nn23)cn1 [XX-384] | 100 to 1000
50 | Cc1noc(C)c1S(=O)(=O)n1cc(-c2cccc3nc(Nc4ccc(OCCN5CCCC5)cc4)nn23)cn1 [XX-385] | 100 to 1000
51 | COc1ccc(-c2cccc3nc(Nc4ccnc(C(=O)NCCN5CCCC5)c4)nn23)cc1 [XX-386] | 1000 to 10000
52 | CCN(CC)CCOc1cc(Nc2nc3cccc(-c4cnn(Cc5ccccc5)c4)n3n2)ccn1 [XX-387] | 100 to 1000
53 | CC[C@@H](COc1ccc(Nc2nc3cccc(-c4ccc(OC)cc4)n3n2)cc1)N1CCCC1 [XX-388] | ≤ 100
54 | CCN(CC)CCOc1cc(Nc2nc3cccc(-c4cnn(S(=O)(=O)CC(C)C)c4)n3n2)ccn1 [XX-389] | 100 to 1000
55 | COc1ccc(-c2cccc3nc(Nc4cccc(N(C)C(=O)C(C)N5CCCC5)c4)nn23)cc1 (centres unmarked) [XX-390] | ≤ 100
56 | COc1ccc(-c2cccc3nc(Nc4cccc(N(C)C(=O)C(C)N5CCOCC5)c4)nn23)cc1 (centres unmarked) [XX-391] | 100 to 1000
57 | Cc1ncsc1CNc1cccc(-c2cccc3nc(Nc4ccc(OCCN5CCCC5)cc4)nn23)c1 [XX-394] | ≤ 100
58 | Cc1ccc(CNc2cccc(-c3cccc4nc(Nc5ccc(OCCN6CCCC6)cc5)nn34)c2)o1 [XX-395] | 100 to 1000
59 | Cn1nccc1CNc1cccc(-c2cccc3nc(Nc4ccc(OCCN5CCCC5)cc4)nn23)c1 [XX-396] | ≤ 100
60 | Cc1nc(CNc2cccc(-c3cccc4nc(Nc5ccc(OCCN6CCCC6)cc5)nn34)c2)c(C)o1 [XX-397] | 100 to 1000
61 | c1ccc(CNc2cccc(-c3cccc4nc(Nc5ccc(OCCN6CCCC6)cc5)nn34)c2)cc1 [XX-398] | 100 to 1000
62 | CCCCNc1cccc(-c2cccc3nc(Nc4ccc(OCCN5CCCC5)cc4)nn23)c1 [XX-399] | 100 to 1000
63 | Cc1ccccc1COc1cccc(-c2cccc3nc(Nc4ccc(OCCN5CCCC5)cc4)nn23)c1 [XX-400] | 1000 to 10000
64 | FC(F)(F)c1cccc(COc2cccc(-c3cccc4nc(Nc5ccc(OCCN6CCCC6)cc5)nn34)c2)c1 [XX-401] | 1000 to 10000
65 | FC(F)(F)c1ccccc1COc1cccc(-c2cccc3nc(Nc4ccc(OCCN5CCCC5)cc4)nn23)c1 [XX-402] | 1000 to 10000
66 | CC(Oc1cccc(-c2cccc3nc(Nc4ccc(OCCN5CCCC5)cc4)nn23)c1)C(=O)Nc1ccccc1 (centres unmarked) [XX-403] | 100 to 1000
67 | NC(=O)COc1cccc(-c2cccc3nc(Nc4ccc(OCCN5CCCC5)cc4)nn23)c1 [XX-404] | 1000 to 10000
68 | CCCOc1cccc(-c2cccc3nc(Nc4ccc(OCCN5CCCC5)cc4)nn23)c1 [XX-405] | 1000 to 10000
69 | Cc1ccc(-c2nnc(COc3cccc(-c4cccc5nc(Nc6ccc(OCCN7CCCC7)cc6)nn45)c3)o2)cc1 [XX-406] | 1000 to 10000
70 | Cn1nc(COc2cccc(-c3cccc4nc(Nc5ccc(OCCN6CCCC6)cc5)nn34)c2)c2ccccc21 [XX-407] | 100 to 1000
71 | COc1ccc(-c2cccc3nc(Nc4ccc(C(=O)NCCN5CCCC5)o4)nn23)cc1 [XX-408] | 100 to 1000
